In US20100075965A1, “PI3 KINASE INHIBITORS AND METHODS OF THEIR USE” (Novartis AG, priority 2006, published 2010):
Where two headings read alike, the source gives them in different places. One block for each compound: values may come before it.

Legend:
PI3 K Alpha = PI3 K Alpha (Homo sapiens, UniProt P42336); test: PI3 kinase phosphorylation assays (homogenous solution phase, one step solid phase, ATP depletion/KinaseGlo); format: biochemical
A2780 cells = test: Viability assay in A2780 (Cell Titer Glo); format: cell-based, human; settings: Homo sapiens, read-out: A2780 Cell prolif. EC50
Summary of the method: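 EC50 values come from Cell Titer Glo luminescence after 72 hrs of compound exposure at 37° C, run in duplicate. A2780 cells were plated at 1,000 per well in DMEM with 10% FBS and dosed with 3-fold serial dilutions.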

[1] = test system: pSer473-Akt in A2780 cells; test: pSer473 Akt assay to monitor PI3K pathway in A2780 cells (MSD); format: cell-based; settings: Homo sapiens
Procedure: In this method, an assay for measuring the PI3K-mediated pSer^473-Akt status after treatment with representative inhibitor compounds of the preferred embodiments is described.
A2780 cells were cultured in DMEM supplemented with 10% FBS, L-glutamine, sodium pyruvate, and antibiotics. Cells were plated in the same medium at a density of 15,000 cells per well into 96 well tissue culture plates, with outside wells vacant, and allowed to adhere overnight.
Test compounds supplied in DMSO were diluted further into DMSO at 500 times the desired final concentrations before dilution into culture media to 2 times the final concentrations. Equal volumes of 2× compounds in media were added to the cells in 96 well plates and incubated at 37° C. for one hour. The media and compounds were then removed, the plates chilled and cells lysed in a lysis buffer (150 mM NaCl, 20 mM Tris pH 7.5, 1 mM EDTA, 1 mM EGTA, 1% Triton X-100) supplemented with phosphatase and protease inhibitors. After thorough mixing, lysates were transferred to both pSer473Akt and total Akt assay plates from Meso Scale Discovery (MSD), and incubated overnight with shaking at 4° C. The plates were washed with 1×MSD wash buffer and the captured analytes detected with secondary antibodies. After incubation with the secondary antibody at room temperature for 1-2 hours, the plates were washed again and 1.5× concentration of Read Buffer T (MSD) was added to the wells.
The assays were read on a SECTOR Imager 6000 instrument (Meso Scale Discovery). Ratios of the signal from pSer473Akt and total Akt assays were used to correct for any variability and the percent inhibition of pSer473Akt from the total signal seen in cells treated with compound versus DMSO alone was calculated and used to determine EC50 values for each compound as shown in Tables 1 and 2 in the column labeled “A2780 pAKT473 EC50”.

[2] = A2780 cells, read-out: A2780 pAKT 473 EC50
[3] = ATP depletion assay, read-out: PI3 K Alpha IC50
[4] = 1 h, A2780 cells, one hour incubation, read-out: A2780 pAKT473 EC50

PI3 K Alpha, sequence (P42336 whole entry): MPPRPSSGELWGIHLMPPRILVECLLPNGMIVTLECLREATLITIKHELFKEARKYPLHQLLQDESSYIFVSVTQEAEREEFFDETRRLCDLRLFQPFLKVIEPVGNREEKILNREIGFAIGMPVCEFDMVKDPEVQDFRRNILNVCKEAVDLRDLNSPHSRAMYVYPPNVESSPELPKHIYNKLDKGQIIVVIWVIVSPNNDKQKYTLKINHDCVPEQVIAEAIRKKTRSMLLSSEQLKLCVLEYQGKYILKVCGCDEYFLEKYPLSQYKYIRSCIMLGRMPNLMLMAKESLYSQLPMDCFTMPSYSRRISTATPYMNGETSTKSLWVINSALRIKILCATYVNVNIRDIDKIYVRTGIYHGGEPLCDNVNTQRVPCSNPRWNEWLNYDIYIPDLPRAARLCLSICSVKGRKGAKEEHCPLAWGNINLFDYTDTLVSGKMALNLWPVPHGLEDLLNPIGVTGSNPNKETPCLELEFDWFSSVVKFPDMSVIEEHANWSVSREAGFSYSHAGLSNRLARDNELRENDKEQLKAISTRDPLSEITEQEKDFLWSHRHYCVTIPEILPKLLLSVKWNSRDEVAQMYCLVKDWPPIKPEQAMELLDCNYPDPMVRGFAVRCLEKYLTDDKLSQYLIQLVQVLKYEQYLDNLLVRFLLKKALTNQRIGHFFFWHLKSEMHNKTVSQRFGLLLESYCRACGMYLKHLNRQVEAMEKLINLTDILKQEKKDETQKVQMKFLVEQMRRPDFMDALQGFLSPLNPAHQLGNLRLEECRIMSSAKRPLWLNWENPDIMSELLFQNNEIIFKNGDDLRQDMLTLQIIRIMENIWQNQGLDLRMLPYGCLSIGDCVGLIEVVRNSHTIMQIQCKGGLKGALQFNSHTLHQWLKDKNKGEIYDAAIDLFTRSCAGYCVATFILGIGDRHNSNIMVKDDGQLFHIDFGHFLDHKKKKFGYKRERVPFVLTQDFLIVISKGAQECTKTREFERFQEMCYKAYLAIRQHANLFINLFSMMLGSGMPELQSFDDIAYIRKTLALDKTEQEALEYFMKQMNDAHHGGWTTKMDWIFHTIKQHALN
PI3 K Alpha, sequence (P27986 whole entry partner): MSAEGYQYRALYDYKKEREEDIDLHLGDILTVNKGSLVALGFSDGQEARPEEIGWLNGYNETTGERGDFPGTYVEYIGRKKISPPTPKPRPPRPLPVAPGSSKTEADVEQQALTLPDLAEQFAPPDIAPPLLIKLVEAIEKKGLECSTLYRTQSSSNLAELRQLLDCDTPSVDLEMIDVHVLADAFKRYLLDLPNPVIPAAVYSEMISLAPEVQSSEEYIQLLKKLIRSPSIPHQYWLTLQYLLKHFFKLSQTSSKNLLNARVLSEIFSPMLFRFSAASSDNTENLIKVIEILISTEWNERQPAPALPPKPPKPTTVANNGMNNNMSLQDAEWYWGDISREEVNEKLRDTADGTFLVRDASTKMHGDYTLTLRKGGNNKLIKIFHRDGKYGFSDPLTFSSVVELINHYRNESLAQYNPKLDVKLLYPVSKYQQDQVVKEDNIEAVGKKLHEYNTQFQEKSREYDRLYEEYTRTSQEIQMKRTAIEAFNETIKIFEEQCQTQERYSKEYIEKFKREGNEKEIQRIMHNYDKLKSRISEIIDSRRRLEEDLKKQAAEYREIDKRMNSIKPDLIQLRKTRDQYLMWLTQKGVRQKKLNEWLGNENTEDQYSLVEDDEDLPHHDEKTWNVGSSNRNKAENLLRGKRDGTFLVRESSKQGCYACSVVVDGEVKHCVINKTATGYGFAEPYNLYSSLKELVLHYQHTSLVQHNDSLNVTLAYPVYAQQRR

SMILES: CC(=O)Nc1cn2cc(-c3cnc(N)c(Cl)c3)ccc2n1 [Example 188, N-(6-(6-amino-5-chloropyridin-3-yl)imidazo[1,2-a]pyridin-2-yl)acetamide]
IC50 (PI3 K Alpha; read-out: PI3K Alpha IC50): < 1000 nM | EC50 (A2780 cells; A2780 cells): < 10000 nM | EC50 [1, 2]: < 1000 nM

SMILES: CC(=O)Nc1cn2cc(-c3cnc(N)c(-c4ccc(C(F)(F)F)cc4)c3)ccc2n1 [Example 93, N-(6-(6-amino-5-(4-(trifluoromethyl)phenyl)pyridin-3-yl)imidazo[1,2-a]pyridin-2-yl)acetamide]
IC50 (PI3 K Alpha; read-out: PI3K Alpha IC50): < 1000 nM | EC50 (A2780 cells; A2780 cells): < 1000 nM | EC50 [1, 2]: < 1000 nM

SMILES: CC(=O)Nc1nc2ccc(-c3cnc(N)c(C(F)(F)F)c3)cn2c1-c1ccccc1 [Example 12, N-[6-(6-Amino-5-trifluoromethyl-pyridin-3-yl)-3-phenyl-imidazo[1,2-a]pyridin-2-yl]-acetamide]
IC50 (PI3 K Alpha; read-out: PI3K Alpha IC50): < 1000 nM | EC50 (A2780 cells; A2780 cells): < 25000 nM | EC50 [1, 2]: < 10000 nM

SMILES: CC(=O)Nc1cn2nc(-c3cnc(N)c(Cl)c3)ccc2n1 [Example 87, N-(6-(6-amino-5-chloropyridin-3-yl)imidazo[1,2-b]pyridazin-2-yl)acetamide]
IC50 (PI3 K Alpha; read-out: PI3K Alpha IC50): < 1000 nM | EC50 (A2780 cells; A2780 cells): < 1000 nM | EC50 [1, 2]: < 1000 nM

SMILES: CCOc1cc(-c2ccc3nc(NC(C)=O)cn3c2)cnc1N [Example 111, N-(6-(6-amino-5-ethoxypyridin-3-yl)imidazo[1,2-a]pyridin-2-yl)acetamide]
EC50 [1, 2]: < 1000 nM

SMILES: CC(C)(C)OC(=O)NCC(=O)Nc1cn2nc(-c3cnc(N)c(C(F)(F)F)c3)ccc2n1 [Example 135, tert-butyl 2-(6-(6-amino-5-(trifluoromethyl)pyridin-3-yl)imidazo[1,2-b]pyridazin-2-ylamino)-2-oxoethylcarbamate]
IC50 (PI3 K Alpha; read-out: PI3K Alpha IC50): < 1000 nM | EC50 (A2780 cells; A2780 cells): < 10000 nM | EC50 [1, 2]: < 1000 nM

SMILES: COc1cc(-c2ccc3nc(NC(C)=O)c(Br)n3c2)cnc1N [Example 8, N-[6-(6-Amino-5-methoxy-pyridin-3-yl)-3-bromo-imidazo[1,2-a]pyridin-2-yl]-acetamide]
IC50 (PI3 K Alpha; read-out: PI3K Alpha IC50): < 1000 nM | EC50 (A2780 cells; A2780 cells): < 10000 nM | EC50 [1, 2]: < 1000 nM

SMILES: CC(=O)Nc1cn2cc(-c3cnc(N)c(F)c3)ccc2n1 [Example 28, N-[6-(6-Amino-5-fluoro-pyridin-3-yl)-imidazo[1,2-a]pyridin-2-yl]-acetamide]
IC50 (PI3 K Alpha; read-out: PI3K Alpha IC50): < 1000 nM | EC50 (A2780 cells; A2780 cells): < 25000 nM | EC50 [1, 2]: < 1000 nM

SMILES: CC(=O)Nc1cn2cc(-c3cnc(N)c(O[C@@H](C)C(F)(F)F)n3)ccc2n1 [Example 55, (S)-N-(6-(5-amino-6-(1,1,1-trifluoropropan-2-yloxy)pyrazin-2-yl)imidazo[1,2-a]pyridin-2-yl)acetamide]
EC50 [1, 2]: < 1000 nM

SMILES: COc1cc(-c2ccc3nc(NC(C)=O)cn3n2)cnc1N [Example 21, N-[6-(6-Amino-5-methoxy-pyridin-3-yl)-imidazo[1,2-b]pyridazin-2-yl]-acetamide]
EC50 [1, 2]: < 1000 nM

SMILES: CC(=O)Nc1cn2nc(-c3cnc(N)c(C(F)(F)F)c3)ccc2n1 [Example 16, N-[6-(6-Amino-5-trifluoromethyl-pyridin-3-yl)-imidazo[1,2-b]pyridazin-2-yl]-acetamide]
EC50 [1, 2]: < 1000 nM

SMILES: CCOc1nc(-c2ccc3nc(NC(C)=O)cn3c2)cnc1N [Example 62, N-(6-(5-amino-6-ethoxypyrazin-2-yl)imidazo[1,2-a]pyridin-2-yl)acetamide]
EC50 [1, 2]: < 1000 nM

SMILES: CCOc1cc(-c2ccc3nc(NC(C)=O)cn3n2)cnc1N [Example 119, N-(6-(6-amino-5-ethoxypyridin-3-yl)imidazo[1,2-b]pyridazin-2-yl)acetamide]
EC50 [1, 2]: < 1000 nM

SMILES: CC(=O)Nc1cn2cc(-c3cnc(N)c(O[C@H](C)C(F)(F)F)n3)ccc2n1 [Example 70, (R)-N-(6-(5-amino-6-(1,1,1-trifluoropropan-2-yloxy)pyrazin-2-a]pyridin-2-yl)acetamide]
EC50 [1, 2]: < 1000 nM

SMILES: CC(=O)Nc1cn2cc(-c3cnc(N)c(C(F)(F)F)c3)ccc2n1 [Example 5, N-[6-(6-Amino-5-trifluoromethyl-pyridin-3-yl)-imidazo[1,2-a]pyridin-2-yl]-acetamide]
EC50 [1, 2]: < 1000 nM

SMILES: COc1nc(-c2ccc3nc(NC(C)=O)cn3c2)cnc1N [Example 101, N-(6-(5-amino-6-methoxypyrazin-2-yl)imidazo[1,2-a]pyridin-2-yl)acetamide]
EC50 [1, 2]: < 1000 nM

SMILES: CC(=O)Nc1cn2cc(-c3cnc(N)c(OCC(F)(F)F)n3)ccc2n1 [Example 56, N-(6-(5-amino-6-(2,2,2-trifluoroethoxy)pyrazin-2-yl)imidazo[1,2-a]pyridin-2-yl)acetamide]
EC50 [1, 2]: < 1000 nM

SMILES: COCCOc1nc(-c2ccc3nc(NC(C)=O)cn3c2)cnc1N [Example 61, N-(6-(5-amino-6-(2-methoxyethoxy)pyrazin-2-yl)imidazo[1,2-a]pyridin-2-yl)acetamide]
EC50 [1, 2]: < 1000 nM

SMILES: CC(=O)Nc1cn2cc(-c3cnc(N)c(OC(C)C)n3)ccc2n1 [Example 54, N-(6-(5-amino-6-isopropoxy-pyrazin-2-yl)imidazo[1,2-a]pyridin-2-yl)acetamide]
EC50 [1, 2]: < 1000 nM

SMILES: Nc1ncc(-c2ccc3nc(NC(=O)[C@@H]4CCCCN4)cn3c2)cc1C(F)(F)F [Example 283, (S)-N-(6-(6-amino-5-(trifluoromethyl)pyridin-3-yl)imidazo[1,2-a]pyridin-2-yl)piperidine-2-carboxamide]
EC50 (A2780 cells; A2780 cells): < 10000 nM | EC50 [1, 2]: < 1000 nM

SMILES: COc1cc(-c2ccc3nc(NC(C)=O)cn3c2)cnc1N [Example 6, N-[6-(6-Amino-5-methoxy-pyridin-3-yl)-imidazo[1,2-a]pyridin-2-yl]-acetamide]
EC50 [1, 2]: < 1000 nM

SMILES: COc1cc(-c2ccc3nc(NC(C)=O)sc3c2)cnc1N [Example 2-9, N-[6-(6-Amino-5-methoxy-pyridin-3-yl)-benzothiazol-2-yl]-acetamide]
EC50 (A2780 cells; A2780, 72 h): < 1000 nM | EC50 ([1]; A2780, 1 h, read-out: A2780 pAKT473 EC50): < 1000 nM

SMILES: COCCOc1cc(-c2ccc3nc(NC(C)=O)cn3n2)cnc1N [Example 106, N-(6-(6-amino-5-(2-methoxyethoxy)pyridin-3-yl)imidazo[1,2-b]pyridazin-2-yl)acetamide]
EC50 [1, 2]: < 1000 nM

SMILES: Nc1ccc(-c2ccc3nc(NC(=O)C(F)(F)F)cn3c2)cn1 [Example 1, N-[6-(6-Amino-pyridin-3-yl)-imidazo[1,2-a]pyridin-2-yl]-2,2,2-trifluoro-acetamide]
EC50 (A2780 cells; A2780 cells): < 25000 nM | EC50 [1, 2]: < 10000 nM

The remaining lines, values ahead:

IC50 (PI3 K Alpha; [3]): < 1000 nM | EC50 (A2780 cells; A2780 cells, 72 hrs): < 10000 nM | EC50 [1, 4]: < 1000 nM
SMILES: CC(=O)Nc1nc2ccc(-c3cnc(N)c(C(F)(F)F)c3)c(F)c2s1 [Example 2-30, N-[6-(6-Amino-5-trifluoromethyl-pyridin-3-yl)-7-fluoro-benzothiazol-2-yl]-acetamide]

IC50 (PI3 K Alpha; [3]): < 1000 nM | EC50 (A2780 cells; A2780 cells, 72 hrs): < 25000 nM | EC50 [1, 4]: < 10000 nM
SMILES: CC(=O)Nc1nc2ccc(-c3cnc(N)cc3C)cc2s1 [Example 2-18, N-[6-(6-Amino-4-methyl-pyridin-3-yl)-benzothiazol-2-yl]-acetamide]

EC50 (A2780 cells; A2780 cells, 72 hrs): < 10000 nM | EC50 [1, 4]: < 1000 nM
SMILES: Nc1ncc(-c2ccc3nc(NC(=O)CCCN4CCOCC4)sc3c2)cc1C(F)(F)F [Example 2-12, N-[6-(6-Amino-5-trifluoromethyl-pyridin-3-yl)-benzothiazol-2-yl]-4-morpholin-4-yl-butyramide]

EC50 (A2780 cells; A2780 cells, 72 hrs): < 10000 nM | EC50 [1, 4]: < 1000 nM
SMILES: CC(=O)Nc1nc2ccc(-c3cnc(N)nc3)cc2s1 [Example 2-1, N-[6-(2-Amino-pyrimidin-5-yl)-benzothiazol-2-yl]-acetamide]

EC50 (A2780 cells; A2780 cells, 72 hrs): < 10000 nM | EC50 [1, 4]: < 1000 nM
SMILES: CC(=O)Nc1nc2ccc(-c3cnc(N)c(C)c3)cc2s1 [Example 2-4, N-[6-(6-Amino-5-methyl-pyridin-3-yl)-benzothiazol-2-yl]-acetamide]

EC50 (A2780 cells; A2780 cells, 72 hrs): < 10000 nM | EC50 [1, 4]: < 1000 nM
SMILES: Nc1ccc(-c2ccc3nc(NC(=O)CCCN4CCCCC4)sc3c2)cn1 [Example 2-5, N-[6-(6-Amino-pyridin-3-yl)-benzothiazol-2-yl]-4-piperidin-1-yl-butyramide]

EC50 (A2780 cells; A2780 cells, 72 hrs): < 10000 nM | EC50 [1, 4]: < 1000 nM
SMILES: CC(=O)Nc1nc2ccc(-c3ccc(N)nc3)cc2s1 [Example 2-2, N-[6-(6-Amino-pyridin-3-yl)-benzothiazol-2-yl]-acetamide]

EC50 (A2780 cells; A2780 cells, 72 hrs): < 1000 nM | EC50 [1, 4]: < 1000 nM
SMILES: CC(=O)Nc1nc2ccc(-c3cnc(N)c(C(F)(F)F)c3)cc2s1 [Example 2-8, N-[6-(6-Amino-5-trifluoromethyl-pyridin-3-yl)-benzothiazol-2-yl]-acetamide]

EC50 (A2780 cells; A2780 cells, 72 hrs): < 10000 nM | EC50 [1, 4]: < 1000 nM
SMILES: Nc1ncc(-c2ccc3nc(NC(=O)CCCN4CCCCC4)sc3c2)cc1C(F)(F)F [Example 2-21, N-[6-(6-Amino-5-trifluoromethyl-pyridin-3-yl)-benzothiazol-2-yl]-4-piperidin-1-yl-butyramide]
